Data reported in patent publication US20200155609A1, “COMPOSITIONS AND METHODS OF MAKING EXPANDED HEMATOPOIETIC STEM CELLS USING PTEN INHIBITORS” (Transfusion Health LLC, priority 2017, published 2020).

Legend:
[1] = test system: CD34+ cells isolated from donor non-mobilized peripheral blood (CD133+ and CD90+ cells); assay: Relative expansive effect (relative cell number) of SF1670 derivatives, non-mobilized peripheral blood CD34+ cells, cytokines with IL-6 (Example 22); assay type: cell-based, human
Procedure: CD34+ cells were isolated from donor peripheral blood as described in Example 20. Isolated CD34+ cells were incubated in an in vitro culture media of Alpha MEM without phenol red, 10% (v/v) heat inactivated fetal bovine serum (FBS). When testing the substituted derivatives of 9,10-dihydrophenathrene (+Derivative conditions), two internal controls were used: a positive control (+SF conditions) and a baseline control (i.e, basic conditions (“cytokines only”)). The media components and concentrations used for the compounds tested are described in Table 8. The culture also included an antibiotic solution that includes penicillin, streptomycin, and amphotericin B to avoid contamination. Controls were included because the amount of expansion in samples obtained varies from individual to individual.
(§1) Cultures were incubated at 3% oxygen (controlled by nitrogen) and 5% CO2.
After the indicated number of days one-half of the volume of the cell culture was removed for data analysis (flow cytometry using a BD FACS ARIA II). The culture volume was replenished with fresh media according to the conditions tested.
Separate experiments were performed for each compound tested (Compound 1.014-1.016).
Table 9, below, summarizes the relative expansive effect of Compound 1.014 to 1.016 (sample compounds) at the indicated concentration. The data in Table 9 is reported as the relative cell number. The relative cell number is the normalized value of cell counts after the indicated number of days in culture. It is calculated as shown below: […]

[2] = test system: CD34+ cells isolated from donor non-mobilized peripheral blood (CD133+ and CD90+ cells); assay: Relative expansive effect of SF1670 derivatives, fold change days 2 to 7, non-mobilized peripheral blood CD34+ cells (Example 21); assay type: cell-based, human; settings: fold change days 2 to 7 normalized to basic and +SF (500 nM SF1670) controls
Procedure: CD34+ cells were isolated from donor peripheral blood as described in Example 20. Isolated CD34+ cells were incubated in an in vitro culture media of Alpha MEM without phenol red, 10% (v/v) heat inactivated fetal bovine serum (FBS). When testing the substituted derivatives of 9,10-dihydrophenathrene and phenanthrene (+Derivative conditions), two internal controls were used: a positive control (+SF conditions) and a baseline control (i.e, basic conditions (“cytokines only”)). The media components and concentrations used for the compounds tested are described in Table 6. The culture also included an antibiotic solution that includes penicillin, streptomycin, and amphotericin B to avoid contamination. Controls were included because the amount of expansion in samples obtained varies from individual to individual.
as §1
Small molecule components were added separately and fresh each time the media needs to be refreshed. Cytokines can be stored together. Media renewal should occur at least every few days.
On the days indicated one-half of the volume of the cell culture was removed for data analysis (flow cytometry using a BD FACS ARIA II). The culture volume was replenished with fresh media according to the conditions tested. The data reported accounts for the dilution factor introduced in this procedure.
Separate experiments were performed for each compound tested (Compound 1.001-1.012).
Table 7, below, summarizes the relative expansive effect of Compound 1.001 to 1.012 (sample compounds) at the indicated concentration. The data in Table 7 is reported as the relative expansive effect. The relative expansive effect is a normalized value of the fold changes shown in each of the figures. It is calculated as shown below: […]

[3] = 5 days in culture, 0.25 μM sample compound
[4] = 7 days in culture, 2 μM sample compound
[5] = 7 days in culture, 1 μM sample compound

Compound: CC(C)(C)C(=O)Nc1ccc2c(c1)C(=O)C(=NO)c1ccccc1-2 [Compound 1.016, N-(9-(hydroxyimino)-10-oxo-9,10-dihydrophenanthren-2-yl)pivalamide]
- CD90 effect (relative expansive effect, relative cell number) [1, 3]: ++ (0.2 ≤ x < 0.55)
- CD133 effect (relative expansive effect, relative cell number) [1, 3]: ++ (0.2 ≤ x < 0.55)

Compound: O=C(COCc1ccccc1)Nc1ccc2c(c1)C(=O)C(=O)c1ccccc1-2 [Compound 1.015, 2-(benzyloxy)-N-(9,10-dioxo-9,10-dihydrophenanthren-2-yl)acetamide]
- CD90 effect (relative expansive effect, relative cell number) [1, 4]: +++++ (1.25 ≤ x)
- CD133 effect (relative expansive effect, relative cell number) [1, 4]: +++ (0.55 ≤ x < 0.9)

Compound: CC(=O)Oc1c(OC(C)=O)c2cc(NC(=O)C(C)(C)C)ccc2c2ccccc12 [Compound 1.012, 2-pivalamidophenanthrene-9,10-diyl Diacetate]
- CD90 effect (relative expansive effect of CD90+ cells) ([2]; 0.5 μM sample compound): +++++ (1.25 ≤ x)
- CD133 effect (relative expansive effect of CD133+ cells) ([2]; 0.5 μM sample compound): ++++ (0.9 ≤ x < 1.25)

Compound: CCCCCCCCCC(=O)Nc1ccc2c(c1)C(=O)C(=O)c1ccccc1-2 [Compound 1.005, N-(9,10-dioxo-9,10-dihydrophenanthren-2-yl)decanamide]
- CD90 effect (relative expansive effect of CD90+ cells) ([2]; 2 μM sample compound): ++ (0.2 ≤ x < 0.55)
- CD133 effect (relative expansive effect of CD133+ cells) ([2]; 2 μM sample compound): + (x < 0.2)

Compound: CCC(C)(C)C(=O)Nc1ccc2c(c1)C(=O)C(=O)c1ccccc1-2 [Compound 1.008, N-(9,10-dioxo-9,10-dihydrophenanthren-2-yl)-2,2-dimethylbutanamide]
- CD90 effect (relative expansive effect of CD90+ cells) ([2]; 1 μM sample compound): ++ (0.2 ≤ x < 0.55)
- CD133 effect (relative expansive effect of CD133+ cells) ([2]; 1 μM sample compound): ++ (0.2 ≤ x < 0.55)

Compound: CCCC(C)(C)C(=O)Nc1ccc2c(c1)C(=O)C(=O)c1ccccc1-2 [Compound 1.010, N-(9,10-dioxo-9,10-dihydrophenanthren-2-yl)-2,2-dimethylpentanamide]
- CD90 effect (relative expansive effect of CD90+ cells) ([2]; 0.125 μM sample compound): +++ (0.55 ≤ x < 0.9)
- CD133 effect (relative expansive effect of CD133+ cells) ([2]; 0.125 μM sample compound): + (x < 0.2)

Compound: CC(C)(C)NC(=O)c1ccc2c(c1)C(=O)C(=O)c1ccccc1-2 [Compound 1.001, N-(tert-butyl)-9,10-dioxo-9,10-dihydrophenanthrene-2-carboxamide]
- CD90 effect (relative expansive effect of CD90+ cells) ([2]; 0.5 μM sample compound): ++ (0.2 ≤ x < 0.55)
- CD133 effect (relative expansive effect of CD133+ cells) ([2]; 0.5 μM sample compound): + (x < 0.2)

Compound: CC(C)(C)C(=O)Nc1ccc2c(c1)C(=O)C(=O)c1cc(N)ccc1-2 [Compound 1.007, N-(7-amino-9,10-dioxo-9,10-dihydrophenanthren-2-yl)pivalamide]
- CD90 effect (relative expansive effect of CD90+ cells) ([2]; 1 μM sample compound): ++ (0.2 ≤ x < 0.55)
- CD133 effect (relative expansive effect of CD133+ cells) ([2]; 1 μM sample compound): ++ (0.2 ≤ x < 0.55)

Compound: O=C1C(=O)c2ccc(NC(=O)C(Cl)(Cl)Cl)cc2-c2ccccc21 [Compound 1.011, 2,2,2-trichloro-N-(9,10-dioxo-9,10-dihydrophenanthren-3-yl)acetamide]
- CD90 effect (relative expansive effect of CD90+ cells) ([2]; 0.25 μM sample compound): ++++ (0.9 ≤ x < 1.25)
- CD133 effect (relative expansive effect of CD133+ cells) ([2]; 0.25 μM sample compound): ++ (0.2 ≤ x < 0.55)

Compound: O=C1C(=O)c2cc(NC(=O)C(Cl)(Cl)Cl)ccc2-c2ccccc21 [Compound 1.009, 2,2,2-trichloro-N-(9,10-dioxo-9,10-dihydrophenanthren-2-yl)acetamide]
- CD90 effect (relative expansive effect of CD90+ cells) ([2]; 0.5 μM sample compound): +++ (0.55 ≤ x < 0.9)
- CD133 effect (relative expansive effect of CD133+ cells) ([2]; 0.5 μM sample compound): ++ (0.2 ≤ x < 0.55)

Compound: CC(C)(C)C(=O)CNc1ccc2c(c1)C(=O)C(=O)c1ccccc1-2 [Compound 1.002, 2-((3,3-dimethyl-2-oxobutyl)amino)phenanthrene-9,10-dione]
- CD90 effect (relative expansive effect of CD90+ cells) ([2]; 1 μM sample compound): ++ (0.2 ≤ x < 0.55)
- CD133 effect (relative expansive effect of CD133+ cells) ([2]; 1 μM sample compound): + (x < 0.2)

Compound: CC(C)(C)CC(=O)Nc1ccc2c(c1)C(=O)C(=O)c1ccccc1-2 [Compound 1.004, N-(9,10-dioxo-9,10-dihydrophenanthren-2-yl)-3,3-dimethylbutanamide]
- CD90 effect (relative expansive effect of CD90+ cells) ([2]; 0.125 μM sample compound): ++ (0.2 ≤ x < 0.55)
- CD133 effect (relative expansive effect of CD133+ cells) ([2]; 0.125 μM sample compound): + (x < 0.2)

Compound: CC(=O)Nc1ccc2c(c1)C(=O)C(=O)c1ccccc1-2 [Compound 1.006, N-(9,10-dioxo-9,10-dihydrophenanthren-2-yl)acetamide]
- CD90 effect (relative expansive effect of CD90+ cells) ([2]; 0.5 μM sample compound): ++ (0.2 ≤ x < 0.55)
- CD133 effect (relative expansive effect of CD133+ cells) ([2]; 0.5 μM sample compound): + (x < 0.2)

Compound: COCCOc1c(O)c2cc(NC(=O)C(C)(C)C)ccc2c2ccccc12 [Compound 1.014, N-(10-hydroxy-9-(2-methoxyethoxy)phenanthren-2-yl)pivalamide]
- CD90 effect (relative expansive effect, relative cell number) [1, 5]: ++ (0.2 ≤ x < 0.55)
- CD133 effect (relative expansive effect, relative cell number) [1, 5]: ++ (0.2 ≤ x < 0.55)

Compound: Nc1ccc2c(c1)C(=O)C(=O)c1cc(NC(=O)CC(=O)O)ccc1-2 [Compound 1.003, 3-((7-amino-9,10-dioxo-9,10-dihydrophenanthren-2-yl)amino)-3-oxopropanoic acid]
- CD90 effect (relative expansive effect of CD90+ cells) ([2]; 0.125 μM sample compound): ++ (0.2 ≤ x < 0.55)
- CD133 effect (relative expansive effect of CD133+ cells) ([2]; 0.125 μM sample compound): + (x < 0.2)
